Source: patent US7939639B2, “Functional role of adrenomedullin (AM) and the gene related product (PAMP) in human pathology and physiology” (The United States of America as represented by the …, priority 1995, dated 2011)
“And” between values parts separate entries of the source, which are not always exact repeats. Identical values can stand only once. “Also recorded” adds a separate entry of the source.

How the values were obtained:
MCF-7 = assay: MTT growth assay, MCF-7; format: cell-based, human
Description: (§1) i. Growth Assays: MTT techniques were performed as previously described (Nakanishi, Y. F., et al., Exper. Cell Biol. 56:74-85 (1988)). In brief, a single cell suspension of 2×10^5 cells/ml (50 μl/well) is seeded into 96-well PVC plates and an appropriate concentration of MoAb-G6 and AM was added in a volume of 50 μl. The assay is performed in TIS medium (RMPI 1640 plus 10 μg/ml transferrin, 10 μg/ml insulin and 3×10^−8M sodium selenite). After 5 days growth at 37° C., 5% CO2, in a humid incubator, the dye and solubilization solutions were added from the Promega Proliferation Assay (Madison, Wis.), which is a variation of the MTT assay (Carmichael, Y. F., et al., Cancer Res. 47:943-946 (1987)). The Biorad Microplate Manager plate reader and software was used to determine the change in number of viable cells from dye reduction measured by absorbance at 570 nm.

[1] = system: tumor cell lines (lung, colon, breast, brain, and ovary); format: cell-based, human; conditions: R0-grown cultures; AM 0.1 μM to 100 μM, 0.1 nM to 100 nM
Excerpt: Results Obtained by Immunohistochemical (IHc) and in situ RT-PCR examination of paraffin-embedded RO-adapted cell lines were consistent with previously reported data on normal lung and pathological lung specimens (Martinez, A., et al., Endocrinology 136:4099-4105 (1995)). […] To further investigate this suspected phenomenon, MTT assay techniques were used to examine the effects of AM on the growth of several diverse tumor cell lines (lung, colon, breast, brain, and ovary). […] Since the test cells were known to produce authentic AM peptide, we assumed that this inability to stimulate growth with extrinsic ligand could possibly mean that the cells has already achieved maximal proliferative effects using their own AM.
as §1, with “After 5 days growth at 37° C., 5% CO2, in a humid incubator, the dye and solubilization solutions were added from the Promega Proliferation Assay (Madison, Wis.), which is a variation of the MTT assay (Carmichael, Y. F., et al., Cancer Res. 47:943-946 (1987)).” left out, “nm. […]” for “nm.”

P. aeruginosa = assay: Micro-/macrodilution timed kill assay, P. aeruginosa; format: cell-based, Pseudomonas aeruginosa; conditions: 24 hours exposure compared with 6 hours incubation
Description: (§2) Inhibition of growth of E. coli was assessed in a microdilutional timed kill assay. (See FIG. 22) Bacteria and Candida albicans were grown overnight on trypticase soy agar (TSA) and Sobouraud dextrose agar (SDA) plates, respectively, were suspended into RPMI-1640 medium (Bio-Whittaker) and adjusted to a final concentration of 8×10^3 cfu/ml in […] in plastic microdilution trays. […] Plates were incubated at 37° C. with gentle agitation over 24 hours. At 6 hr and 24 hr time points, 10 to […] aliquots from each well were quantitatively cultured by serial 100-fold dilutions onto TSA and SDA plates.
(§3) Data were compiled from six experiments. Macrodilution assays were performed in 12×75 mm borosilicate glass tubes. Organisms were grown and harvested, as described in Roilides, E., et al., J Infect Dis. 163:579 (1991), and adjusted to a final inoculum concentration of 8×10^3 cfu/ml in 400 μl. […] Tubes were incubated at 37° C. with gentle agitation over 24 hours. At 6 and 24 hour time points, 100 μl aliquots from each tube were quantitatively cultured by serial 100-fold dilutions onto TSA and SDA plates.

S. aureus = assay: Micro-/macrodilutional assays, S. aureus; format: cell-based, Staphylococcus aureus; conditions: microdilutional or macrodilutional assays
Description: as §2, §3

E. coli = assay: Macrodilution assay, E. coli; format: cell-based, Escherichia coli; conditions: E. coli
Description: as §3

rat isolated islets = assay: cAMP content of rat isolated islets (RIA); format: cell-based; conditions: after addition of AM
Description: Dose-dependent increase of intracellular cAMP in the islets following addition of AM. Islets from six rats were isolated following well-established protocols (Gray, et al., Diabetes 33, 1055 (1984)). Assays were performed in 24-well plates (90 islets per well). After a 45 min incubation in […] medium containing 5.6 mM glucose, a second incubation in RPMI containing 20.6 mM glucose and the proper concentration of AM and/or the antibody was performed. Supernatants from both incubations were tested by radioimmunoassay (RIA) for insulin (Amersham, Arlington Heights, Ill.). The ratio between the insulin concentration found in the high glucose supernatant and the insulin measured in the low glucose solution is represented in ordinates. After collecting the medium, the islets from the same experiments were saved for analysis of cAMP contents (Korman, et al., Cancer Res. 46, 1214 (1986)). Islets were extracted in 50% ethanol and centrifuged, and the supernatants were tested for cAMP using a RIA kit (New England Nuclear, Boston, Mass.) following manufacturer's instructions. The experiments were repeated three times and a representative example shown. Data are means±standard deviations of two wells.

[2] = Oral glucose tolerance test in nonanesthetized rats; format: in vivo, Sprague-Dawley rats
Description: Glucose tolerance tests were performed on Sprague-Dawley rats (250 to 300 g) in the presence (◯) or absence (●) of AM. […] Glucose tolerance methods have been published previously (Brown, et al., Proc. Soc. Exp. Biol. Med. 150, 557 (1975)). Six rats were administered a glucose solution (400 mg/100 g body weight) via gastric intubation. Ocular blood samples were collected at intervals following glucose loading, and glucose concentration was determined by a calorimetric assay (Sigma). Blood insulin levels were determined on the same samples by radioimmunoassay (Amersham). Three days later, the same rats received 1 μL, of AM (60 μM) per g body weight through intravenous injection and tolerance tests were repeated. Data are means±standard deviations for the six animals. Two-tailed Student's test was performed to determine statistical significance. (*) indicates statistical significance (p<0.01).

Isoelectric point = format: physicochemical

CC[C@H](C)[C@H](NC(=O)[C@H](CCC(N)=O)NC(=O)[C@H](Cc1c[nH]cn1)NC(=O)[C@H](C)NC(=O)[C@H](CC(C)C)NC(=O)[C@H](CCCCN)NC(=O)[C@H](CCC(N)=O)NC(=O)[C@@H](NC(=O)[C@@H](NC(=O)[C@@H]1CSSC[C@H](NC(=O)CNC(=O)[C@H](Cc2ccccc2)NC(=O)[C@H](CO)NC(=O)[C@H](CCCNC(=N)N)NC(=O)[C@H](CC(C)C)NC(=O)CNC(=O)[C@H](CCC(N)=O)NC(=O)[C@H](Cc2ccccc2)NC(=O)[C@H](CC(N)=O)NC(=O)[C@H](CC(N)=O)NC(=O)[C@H](CCSC)NC(=O)[C@H](CO)NC(=O)[C@H](CCC(N)=O)NC(=O)[C@H](CCCNC(=N)N)NC(=O)[C@@H](N)Cc2ccc(O)cc2)C(=O)N[C@@H](CCCNC(=N)N)C(=O)N[C@@H](Cc2ccccc2)C(=O)NCC(=O)N[C@@H]([C@@H](C)O)C(=O)N1)[C@@H](C)O)C(C)C)C(=O)N[C@@H](Cc1ccc(O)cc1)C(=O)N[C@@H](CCC(N)=O)C(=O)N[C@@H](Cc1ccccc1)C(=O)N[C@H](C(=O)N[C@@H](CC(=O)O)C(=O)N[C@@H](CCCCN)C(=O)N[C@@H](CC(=O)O)C(=O)N[C@@H](CCCCN)C(=O)N[C@@H](CC(=O)O)C(=O)N[C@@H](CC(N)=O)C(=O)N[C@H](C(=O)N[C@@H](C)C(=O)N1CCC[C@H]1C(=O)N[C@@H](CCCNC(=N)N)C(=O)N[C@@H](CO)C(=O)N[C@@H](CCCCN)C(=O)N[C@H](C(=O)N[C@@H](CO)C(=O)N1CCC[C@H]1C(=O)N[C@@H](CCC(N)=O)C(=O)NCC(=O)N[C@@H](Cc1ccc(O)cc1)C(N)=O)[C@@H](C)CC)C(C)C)[C@@H](C)O [AM]
growth suppression by synthetic AM alone (MCF-7; AM 10 μM (FIG. 12B)): ≈ 10%
reversal of MoAb-G6 growth inhibition by exogenous AM (MCF-7; MCF-7): abrogated
stimulation of growth by exogenous AM [1]: ineffective in stimulating growth
antimicrobial activity against P. aeruginosa, 24 hours versus 6 hours (P. aeruginosa): greater antimicrobial activity
growth suppressive activity against S. aureus (S. aureus): ineffective; also recorded: no apparent growth suppressive activity
antimicrobial activity, macrodilution, 6 hours (E. coli; 6 hours incubation): no activity
antimicrobial activity, macrodilution, 24 hours (E. coli; 24 hours incubation): somewhat more active than PAMP; also recorded: slightly more active than PAMP
cAMP levels in the islets (rat isolated islets): Elevating levels of cAMP; also recorded: cAMP levels increased
insulin levels versus control ([2]; 20 min after intravenous injection of AM): Significant differences
duration of block of insulin secretion ([2]; after intravenous injection of AM (1 μL of 60 μM per g body weight)): at least 20 min
levels of circulating glucose versus control ([2]; after intravenous injection of AM, 1 h): significantly higher; also recorded: highly significant
isoelectric point (Isoelectric point): 9.7 and 10.2
